Legend:
Assay in all cases: relative viability (nuclei count vs DMSO), 5 days (fraction); higher = more cells survive
[1] = compound: OCc1c[nH]c2ccccc12 [Indole-3-carbinol] + CC(=O)c1c(C)c2cnc(Nc3ccc(N4CCNCC4)cn3)nc2n(C2CCCC2)c1=O [Palbociclib] (partner 0.5 µM)
Outline: (§1)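 Lung cancer cell lines in 1536-well plates got either a single drug or a fixed anchor-drug dose together with five library-drug doses (not always all listed) in √10 steps, by pin tool, on the day after seeding. Nuclei were counted after 5 days, and relative viability is the treated-to-vehicle ratio of nuclei counts. Values are medians of duplicate plates.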

[2] = compound: OCc1c[nH]c2ccccc12 [Indole-3-carbinol] + CC(C)C[C@H](NC(=O)[C@H](Cc1ccccc1)NC(=O)c1cnccn1)B(O)O [Bortezomib] (partner 0.002 µM)
Outline: as §1

[3] = compound: OCc1c[nH]c2ccccc12 [Indole-3-carbinol] + COc1cccc2cc(-c3nc([C@H]4CC[C@H](C(=O)O)CC4)n4ncnc(N)c34)[nH]c12 [OSI-027] (partner 0.5 µM)
Outline: as §1

[4] = compound: OCc1c[nH]c2ccccc12 [Indole-3-carbinol] + Cc1cc(Nc2cc(N3CCN(C)CC3)nc(Sc3ccc(NC(=O)C4CC4)cc3)n2)n[nH]1 [Tozasertib] (partner 0.1 µM)
Outline: as §1

[5] = compound: OCc1c[nH]c2ccccc12 [Indole-3-carbinol] + Nc1nc2[nH]cc(CCc3ccc(C(=O)N[C@@H](CCC(=O)O)C(=O)O)cc3)c2c(=O)[nH]1 [Pemetrexed] (partner 0.2 µM)
Outline: as §1

Cell Line	relative viability ([1]; first compound 0.253 µM)	relative viability ([1]; first compound 0.8 µM)	relative viability ([1]; first compound 2.53 µM)	relative viability ([1]; first compound 8 µM)	relative viability ([2]; first compound 0.253 µM)	relative viability ([2]; first compound 0.8 µM)	relative viability ([2]; first compound 2.53 µM)	relative viability ([2]; first compound 8 µM)	relative viability ([3]; first compound 0.253 µM)	relative viability ([3]; first compound 0.8 µM)	relative viability ([3]; first compound 2.53 µM)	relative viability ([3]; first compound 8 µM)	relative viability ([4]; first compound 0.253 µM)	relative viability ([4]; first compound 0.8 µM)	relative viability ([4]; first compound 2.53 µM)	relative viability ([4]; first compound 8 µM)	relative viability ([5]; first compound 0.253 µM)	relative viability ([5]; first compound 0.8 µM)	relative viability ([5]; first compound 2.53 µM)	relative viability ([5]; first compound 8 µM)
NCI-H838	0.191	0.203	0.231	0.223	0.842	0.789	0.856	0.913	0.344	0.311	0.416	0.386	0.265	0.308	0.301	0.286	0.236	0.256	0.265	0.254
NCI-H3122	0.188	0.196	0.176	0.183	1.01	1.04	1.07	1.04	0.967	1.08	1.02	0.948	0.398	0.383	0.483	0.372	0.195	0.21	0.203	0.203
SK-MES-1	0.292	0.299	0.318	0.313					0.596	0.642	0.588	0.537	0.904	1.04	0.932	0.907	0.926	1.01	0.927	0.939
NCI-H1944	0.338	0.279	0.304	0.311					0.375	0.378	0.369	0.363	0.245	0.241	0.264	0.246	0.663	0.539	0.649	0.641
LK-2	0.674	0.489	1.05	0.703					0.198	0.145	0.189	0.215	0.162	0.167	0.194	0.17	0.273	0.216	0.313	0.358
PC-3 [JPC-3]	0.574	0.568	0.557	0.507	0.851	0.89	0.863	0.741	0.714	0.741	0.704	0.745	0.873	0.981	0.879	0.866	1.17	1.16	0.958	1.15
COR-L23	0.323	0.245	0.308	0.237	0.926	1.14	0.899	0.883	0.66	0.718	0.854	0.628	0.201	0.243	0.296	0.185	0.193	0.202	0.198	0.209
NCI-H1355	0.401	0.379	0.43	0.392	1.25	1.18	1.2	1.17	0.403	0.44	0.363	0.396	0.525	0.619	0.551	0.564	1.08	1.08	0.983	1.06
NCI-H460	0.149	0.17	0.229	0.19	1.14	1.14	1.11	1.03	0.594	0.621	0.632	0.6	0.426	0.385	0.532	0.443	0.0608	0.0603	0.063	0.0679
NCI-H1993	0.713	0.635	0.664	0.521	1.09	1.38	1.14	1.17	0.513	0.516	0.63	0.468	0.614	0.629	0.579	0.562	0.59	0.69	0.548	0.567
ChaGo-K-1	0.942	0.939	0.994	0.968	0.871	0.988	0.896	1.06	0.56	0.543	0.605	0.567	0.218	0.219	0.231	0.211	0.258	0.258	0.27	0.257
HCC-15	0.804	0.773	0.733	0.724	1.08	1.08	1.1	1.06	0.681	0.79	0.676	0.701	0.348	0.52	0.495	0.398	0.214	0.226	0.205	0.235
NCI-H23	0.435	0.463	0.546	0.419	0.898	1.16	0.846	0.975	0.589	0.732	0.566	0.55	0.351	0.359	0.345	0.377	0.738	0.773	0.844	0.788
NCI-H1395	0.625	0.589	0.734	0.531					0.738	0.606	0.637	0.613	0.705	0.77	0.734	0.758	0.848	0.868	0.78	0.845
NCI-H1666	0.667	0.694	0.667	0.626	0.892	0.873	0.865	0.786	0.7	0.878	0.874	0.876	0.556	0.638	0.526	0.657	0.882	0.852	0.878	0.826
NCI-H2405	0.513	0.554	0.553	0.491	0.985	0.983	1	0.963	0.617	0.676	0.633	0.656	0.751	0.806	0.758	0.776	1.15	1.04	0.972	1.03

Cell Line	relative viability ([1]; first compound 0.253 µM)	relative viability ([1]; first compound 0.8 µM)	relative viability ([1]; first compound 2.53 µM)	relative viability ([1]; first compound 8 µM)	relative viability ([2]; first compound 0.253 µM)	relative viability ([2]; first compound 0.8 µM)	relative viability ([2]; first compound 2.53 µM)	relative viability ([2]; first compound 8 µM)	relative viability ([3]; first compound 0.253 µM)	relative viability ([3]; first compound 0.8 µM)	relative viability ([3]; first compound 2.53 µM)	relative viability ([3]; first compound 8 µM)	relative viability ([4]; first compound 0.253 µM)	relative viability ([4]; first compound 0.8 µM)	relative viability ([4]; first compound 2.53 µM)	relative viability ([4]; first compound 8 µM)	relative viability ([5]; first compound 0.253 µM)	relative viability ([5]; first compound 0.8 µM)	relative viability ([5]; first compound 2.53 µM)	relative viability ([5]; first compound 8 µM)
NCI-H2009	0.213	0.188	0.169	0.226	1.14	1.09	0.998	0.933	0.572	0.677	0.649	0.604	0.691	0.862	0.737	0.739	1.03	1.07	1.07	1.06
HCC-78	0.486	0.498	0.471	0.462	0.416	0.51	0.403	0.554	0.363	0.359	0.39	0.346	0.301	0.454	0.569	0.415	0.89	0.947	0.929	0.891
NCI-H2170	0.384	0.375	0.41	0.42					0.702	0.815	0.749	0.671	0.703	0.712	0.79	0.717	0.286	0.24	0.292	0.273
NCI-H1793	0.346	0.281	0.298	0.315					0.233	0.251	0.268	0.31	0.332	0.389	0.339	0.395	0.934	0.773	1.03	0.761
ABC-1	0.681	0.807	0.794	0.735	0.297	0.292	0.324	0.33	0.381	0.511	0.565	0.565	0.186	0.214	0.164	0.158				
NCI-H1703					0.274	0.389	0.358	0.453												
NCI-H2342	0.516	0.516	0.498	0.535					0.605	0.585	0.569	0.572	0.516	0.575	0.453	0.405	0.757	0.738	0.751	0.742
SW 900	0.557	0.501	0.589	0.527					0.574	0.706	0.592	0.599	0.548	0.726	0.616	0.548	0.49	0.443	0.519	0.495
NCI-H522	0.87	1.02	1.31	1.15					0.646	0.821	0.685	0.836	0.63	0.525	0.567	0.538	0.979	1.12	1.08	1.04
NCI-H727	0.634	0.669	0.699	0.648	0.872	0.842	0.897	0.828	0.544	0.517	0.548	0.771	0.512	0.73	0.599	0.554				
NCI-H1792	0.74	0.634	0.675	0.697	0.965	0.89	1.03	0.934	0.733	0.695	0.726	0.692					0.984	0.993	0.704	0.858
IA-LM					0.842	0.898	0.82	0.789												
NCI-H358	0.145	0.125	0.136	0.12					0.792	0.734	0.859	0.64	0.097	0.131	0.113	0.0974	0.17	0.161	0.182	0.185
NCI-H596					0.996	0.773	0.987	1.01	0.759	0.761	0.726	0.866	0.803	1.04	0.784	0.896	0.474	0.508	0.517	0.486
NCI-H1563					0.951	0.7	0.996	0.774	0.733	0.748	0.747	0.791					0.767	0.645	0.809	0.802

From the supplement of paper PMC10307832
